Source: ChEMBL document CHEMBL1134567, “Prediction of the aroma quality and the threshold values of some pyrazines using artificial neural networks” (J Med Chem, 2001)

Assay: Evaluated for its olfactory detection threshold value and indicates quantitative measure of odor impression
Type: functional

Row | Compound | Log 1/C
1 | CCCCCCCCc1nccnc1SCC | 5.1
2 | CCc1cnc(C)cn1 | 2.45
3 | CCCCCCCCCCc1nccnc1OC | 3.8
4 | CCCCCCCCc1nccnc1SC | 5.53
5 | CCCCCCCCCCc1nccnc1OCC | 3.64
6 | CCCCCCCCc1nccnc1OC | 6.57
7 | CCCCCCCCc1nccnc1OCC | 5.07

Assay: Evaluated for its olfactory detection threshold value and indicates quantitative measure of odour impression
Type: functional

Row | Compound | Log 1/C
8 | CCC(C)CCc1cnc(OC)c(C)n1 (stereo not drawn) | 5.24
9 | COc1nccnc1CCCC(C)C | 7.51
10 | CCCC(C)Cc1nccnc1OC (stereo not drawn) | 7.38
11 | C/C=C\CCc1nccnc1OC | 5.52
12 | CCCCCc1cnc(C)c(C)n1 | 3.3
13 | Cc1nc(CC(C)C)cnc1Oc1ccccc1 | 2.88
14 | COc1nccnc1C(C)C | 6.8
15 | CSc1nccnc1C(C)C | 6.55
16 | COc1ncc(C)nc1CC(C)C | 4.84
17 | CCOc1ncc(C(C)CC)nc1C (stereo not drawn) | 4.21
18 | CCCCCc1cnccn1 | 4.48
19 | CC(C)Cc1cnccn1 | 2.53
20 | CCCCc1nccnc1OC | 6.52
21 | CSc1nccnc1CC(C)C | 5.74
22 | COc1ncc(CC(C)C)nc1C | 6
23 | Cc1nccnc1C(C)C | 3.93
24 | CCOc1ncc(CC(C)CC)nc1C (stereo not drawn) | 4.54
25 | CCCCCc1nccnc1SCC | 5.32
26 | CCCc1nccnc1C | 3.36

Row | Compound | Log 1/C
27 | COc1nccnc1CCC(C)C | 7.46
28 | COc1ncc(C)nc1C(C)C | 6.52
29 | COc1nc(C)c(OC)nc1C | 2.97
30 | CCC(C)Cc1nccnc1OC (stereo not drawn) | 7.18
31 | C=CCCCc1nccnc1OC | 6.77
32 | CCc1nccnc1CC | 5.13
33 | CCCCCCc1nccnc1OC | 6.44
34 | CCCCCc1nccnc1SC | 6.21
35 | C/C=C/CCc1nccnc1OC | 6.1
36 | CCOc1ncc(CCC(C)CC)nc1C (stereo not drawn) | 4.87
37 | CCSc1ncc(CC(C)CC)nc1C (stereo not drawn) | 4.95
38 | Cc1nccnc1CC(C)C | 3.06
39 | CCCCCc1nccnc1OCC | 6.38
40 | COc1nccnc1CC(C)C | 7.47
41 | COc1nc(OC)c(C(C)C)nc1C | 2.89
42 | CCCC(C)Cc1cnc(SC)c(C)n1 (stereo not drawn) | 4.27
43 | CCC(C)CCc1cnc(Oc2ccccc2)c(C)n1 (stereo not drawn) | 3.29
44 | COc1nc(C(C)C)c(OC)nc1C(C)C | 2.52
45 | CC(C)c1cnc(Oc2ccccc2)cn1 | 2.79

Row | Compound | Log 1/C
46 | CCC(C)c1nccnc1OC (stereo not drawn) | 6.62
47 | CCCc1nccnc1SC | 5.23
48 | CCCCc1cnccn1 | 2.53
49 | Cc1ncc(C(C)C)nc1C | 3.88
50 | CSc1ncc(CC(C)C)nc1C | 4.12
51 | COc1nc(C)c(C)nc1CC(C)C | 2.79
52 | CCOc1ncc(CC(C)C)nc1C | 4.08
53 | CCCCCCCc1nccnc1OC | 6.9
54 | COc1nc(C)cnc1CC(C)C | 5.84
55 | CCCCc1nccnc1SCC | 4.69
56 | CCSc1cnc(CCC(C)CC)cn1 (stereo not drawn) | 3.63
57 | CC(C)Cc1cncc(N(C)C)n1 | 1.55
58 | CCCCCc1nccnc1OC | 6.95
59 | COc1nc(C(C)C)c(OC)nc1C | 3.45
60 | CCCc1nccnc1OC | 6.1
61 | Cc1nccnc1N(C)C | 2.88
62 | CCC(C)Cc1cnc(OC)c(C)n1 (stereo not drawn) | 7.29
63 | COc1nc(C)cnc1C(C)C | 6.57

Assay: Olfactory detection threshold value and quantitative measure of odour impression; No threshold value.
Type: functional

Row | Compound | Log 1/C
64 | CCOc1cnccn1 | No threshold value
65 | COc1cnccn1 | No threshold value
66 | CCSc1cnccn1 | No threshold value
67 | COc1nccnc1CCCCCCC(C)C | No threshold value
68 | CSc1cncc(C)n1 | No threshold value
69 | CSc1nccnc1C | No threshold value
70 | COc1nccnc1C | No threshold value
71 | CSc1cnccn1 | No threshold value
72 | CCCC(C)c1nccnc1OC (stereo not drawn) | No threshold value
73 | Cc1nccnc1C | No threshold value
74 | Cc1cnc(C)c(C)n1 | No threshold value
75 | Cc1cnc(C)cn1 | No threshold value
76 | CCc1cnccn1 | No threshold value
77 | COc1nc(CC(C)C)cnc1CC(C)C | No threshold value
78 | COc1cncc(C)n1 | No threshold value
79 | CCCCCCCCc1nccnc1Sc1ccccc1 | No threshold value
80 | CCc1nccnc1OC | No threshold value
81 | CNc1nccnc1C | No threshold value
82 | CCCCOc1cnccn1 | No threshold value
83 | CCCCCCC(C)Cc1nccnc1OC (stereo not drawn) | No threshold value
84 | CCOc1nccnc1CC(C)C | No threshold value

Assay: Evaluated for its olfactory detection threshold value and indicates quantitative measure of odour impression; No threshold value.
Type: functional

Row | Compound | Log 1/C
85 | COc1nc(C)cnc1C(C)(C)O | No threshold value
86 | CCc1ncc(C)nc1C | No threshold value
87 | CCSc1nccnc1C | No threshold value
88 | CCc1nc(C)cnc1C | No threshold value
89 | Cc1ncc(CC(C)C)nc1C | No threshold value
90 | CCc1cnc(C)c(C)n1 | No threshold value
91 | COc1nc(C)cnc1C | No threshold value
92 | COc1nc(C)cnc1C(C)=O | No threshold value
93 | COc1nc(C(C)=O)c(OC)nc1C | No threshold value
94 | CCSc1nccnc1CC | No threshold value
95 | Cc1nc(C)c(C)nc1C | No threshold value
96 | CCOc1nccnc1C | No threshold value
97 | Cc1cnc(C)c(CCC(C)C)n1 | No threshold value
98 | COc1ncc(C)nc1C(C)(C)O | No threshold value
